# Source: patent US7504508B2, “PGD2 receptor antagonists for the treatment of inflammatory diseases” (Millennium Pharmaceuticals, Inc., priority 2002, dated 2009)
# Molecular target: T1, cloned human CRTH2 receptor (Homo sapiens, UniProt Q9Y5Y4)
# T1 construct: purchased Biosignal; host or cells: HEK-293 cells stably expressing human CRTH2 and G-alpha-16 (membranes)
# T1 sequence (Q9Y5Y4 1-395): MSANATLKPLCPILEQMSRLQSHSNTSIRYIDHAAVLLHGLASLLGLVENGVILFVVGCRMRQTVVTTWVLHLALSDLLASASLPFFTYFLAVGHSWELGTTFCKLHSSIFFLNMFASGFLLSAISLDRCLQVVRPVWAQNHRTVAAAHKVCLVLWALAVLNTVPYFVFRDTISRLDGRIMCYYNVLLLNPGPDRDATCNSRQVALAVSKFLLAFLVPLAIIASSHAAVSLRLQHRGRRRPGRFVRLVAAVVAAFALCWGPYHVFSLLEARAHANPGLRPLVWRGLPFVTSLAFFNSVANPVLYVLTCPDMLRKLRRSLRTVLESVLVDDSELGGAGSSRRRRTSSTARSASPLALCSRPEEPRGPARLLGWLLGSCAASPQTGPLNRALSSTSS
# Test: Radioligand membrane binding assay: inhibition of [3H] PGD2 binding to CRTH2 (Scintillation Proximity Assay)
# Conditions: inhibition of [3H] PGD2 binding to membranes of HEK-293 cells stably expressing human CRTH2; SPA; 10 point curve from 10 μM; room temperature, approximately 2 hours
# Procedure: This radioligand membrane binding assay evaluates the ability of compounds to inhibit [^3H] Prostaglandin D2 (PGD2) binding to the cloned human CRTH2 receptor stably expressed in HEK-293 cells (expressing human CRTh2 receptor and α subunit or the heteronimeric G protein 16 were prepared by Biosignal Company) using Scintillation Proximity Assay.
# A binding buffer containing 50 mM Tris-HCl (pH 7.5), 5 mM MgCl2 and 1 mM EDTA was prepared immediately prior to performing the assay. A bead/membrane solution at twice the final assay concentration comprising membranes (membranes bought from Biosignal) from the HEK-293 cells cloned to express CRTH2 receptor bound to and [3H] PGD2 at twotimes the final assay concentration were prepared and stored on ice before adding to wells. Cold PGD2 at twenty times the final assay concentration was prepared and stored on ice before adding to wells defining non-specific binding (NSB) corning plates #3653 were used for this assay.
# 10 mM stock concentrations of compounds in 100% DMSO were prepared and stored at room temperature. A 10 point concentration response curve was then constructed for each compound, starting at 10 μM (final assay concentration). The compounds were prepared at 40 times final assay concentrations with nine consequent-3-fold dilutions.
# 0.1 μl of each concentration of compound were added to the appropriate well of the 384 plate and 2 μl of cold PGD2 was added into the wells defining NSB. 20 μl of [^3H] PGD2 and then 20 μl of 2× of bead/membrane solution were then added to each well.
# The plates were allowed to incubate at room temperature for approximately 2 hours and then counted on Packard Topcount using SPA tritium protocol for 1 minute/well.
# The percent inhibition of PGD2 binding (PGD2 used at the KD value or lower) to the HEK-293 cell membranes was determined, the assay was always run as duplicate for n=1 for a total of n=2.
row,SMILES,Ki [µM]
1,"COc1cccc(C(=O)N2c3ccccc3[C@H](N(C(=O)c3ccc(Cl)cc3)c3ccccc3)C[C@@H]2C)c1 (racemic) [Compound A-3, (±)-Cis-4-chloro-N-[1-(3-methoxy-benzoyl)-2-methyl-1,2,3,4-tetrahydro-quinolin-4-yl]-N-phenyl-benzamide]",< 10
2,"CC(=O)N(c1ccccc1)[C@@H]1C[C@H](C)N(C(=O)c2sc(-c3ccccc3)nc2C)c2ccccc21 (racemic) [Compound A-16, (±)-Cis-N-[2-methyl-1-(4-methyl-2-phenyl-thiazole-5-carbonyl)-1,2,3,4-tetrahydro-quinolin-4-yl]-N-phenyl-acetamide]",< 10
3,"CC(=O)N(c1ccccc1)[C@@H]1C[C@H](C)N(C(=O)c2snnc2C)c2ccccc21 (racemic) [Compound A-17, (±)-Cis-N-[2-methyl-1-(4-methyl-[1,2,3]thiadiazole-5-carbonyl)-1,2,3,4-tetrahydro-quinolin-4-yl]-N-phenyl-acetamide]",< 10
4,"CC(=O)N(c1ccccc1)[C@@H]1C[C@H](C)N(C(=O)c2cc(F)c(F)c(F)c2)c2ccccc21 (racemic) [Compound A-20, (±)-Cis-N-[2-methyl-1-(3,4,5-trifluoro-benzoyl)-1,2,3,4-tetrahydro-quinolin-4-yl]-N-phenyl-acetamide]",< 10
5,"CC(=O)N(c1ccccc1)[C@@H]1C[C@H](C)N(C(=O)c2c(F)cc(F)cc2F)c2ccccc21 (racemic) [Compound A-24, (±)-Cis-N-[2-methyl-1-(2,4,6-trifluoro-benzoyl)-1,2,3,4-tetrahydro-quinolin-4-yl]-N-phenyl-acetamide]",< 10
6,"CCC(=O)N(c1ccccc1)[C@@H]1C[C@H](C)N(C(=O)c2cccc(Cl)c2)c2ccccc21 (racemic) [Compound A-35, (±)-Cis-N-[1-(3-chloro-benzoyl)-2-methyl-1,2,3,4-tetrahydro-quinolin-4-yl]-N-phenyl-propionamide]",< 10
7,"CC(=O)N(C)CC(=O)N(c1ccccc1)[C@@H]1C[C@H](C)N(C(=O)c2ccc(F)cc2)c2ccccc21 (racemic) [Compound A-49, (±)-Cis-2-(acetyl-methyl-amino)-N-[1-(4-fluoro-benzoyl)-2-methyl-1,2,3,4-tetrahydro-quinolin-4-yl]-N-phenyl-acetamide]",< 10
8,"COc1cccc(C(=O)N2c3ccccc3[C@H](N(C(=O)C3CCCCC3)c3ccccc3)C[C@@H]2C)c1 (racemic) [Compound A-54, (±)-Cis-cyclohexanecarboxylic acid [1-(3-methoxy-benzoyl)-2-methyl-1,2,3,4-tetrahydro-quinolin-4-yl]-phenylamide]",< 10
9,"COc1cccc(C(=O)N2c3ccccc3[C@H](N(C(=O)c3ccno3)c3ccccc3)C[C@@H]2C)c1 (racemic) [Compound A-55, (±)-Cis-isoxazole-5-carboxylic acid [1-(3-methoxy-benzoyl)-2-methyl-1,2,3,4-tetrahydro-quinolin-4-yl]-phenyl-amide]",< 10
10,"CC(=O)N(c1ccccc1)[C@@H]1C[C@H](C)N(C(=O)c2sc(C)nc2C)c2ccccc21 (racemic) [Compound A-67, (±)-Cis-N-[1-(2,4-dimethyl-thiazole-5-carbonyl)-2-methyl-1,2,3,4-tetrahydro-quinolin-4-yl]-N-phenyl-acetamide]",< 10
11,"C[C@H]1C[C@@H](N(C(=O)COc2ccccc2)c2ccccc2)c2ccccc2N1C(=O)c1ccc(F)cc1 (racemic) [Compound A-72, (±)-Cis-N-[1-(4-fluoro-benzoyl)-2-methyl-1,2,3,4-tetrahydro-quinolin-4-yl]-2-phenoxy-N-phenyl-acetamide]",< 10
12,"C[C@H]1C[C@@H](N(C(=O)CCc2ccccc2)c2ccccc2)c2ccccc2N1C(=O)c1ccc(F)cc1 (racemic) [Compound A-73, (±)-Cis-N-[1-(4-fluoro-benzoyl)-2-methyl-1,2,3,4-tetrahydro-quinolin-4-yl]-3,N-diphenyl-propionamide]",< 10
13,"CCC(=O)N(c1ccccc1)C1CC(C)N(C(=O)C2CN(Cc3ccccc3)CCO2)c2ccccc21 (racemic) [Compound A-81, (±)-Cis-N-[1-(4-benzyl-morpholine-2-carbonyl)-2-methyl-1,2,3,4-tetrahydro-quinolin-4-yl]-N-phenyl-propionamide]",< 10
14,"CCC(=O)N(c1ccccc1)C1CC(C)N(C(=O)C2CN(CC)CCO2)c2ccccc21 (racemic) [Compound A-82, (±)-Cis-N-[1-(4-Ethyl-morpholine-2-carbonyl)-2-methyl-1,2,3,4-tetrahydro-quinolin-4-yl]-N-phenyl-propionamide]",< 10
15,"COc1cccc(C(=O)N2c3ccccc3[C@@H](N(C(C)=O)c3ccccc3)C[C@@H]2C)c1 (racemic) [Compound A-124, (±)-Trans-N-[1-(3-methoxy-benzoyl)-2-methyl-1,2,3,4-tetrahydro-quinolin-4-yl]-N-phenyl-acetamide]",< 60
16,"CC(=O)N(c1ccccc1)[C@@H]1C[C@H](C)N(C(=O)c2cccn2C)c2ccccc21 (racemic) [Compound A-130, (±)-Cis-N-[2-methyl-1-(1-methyl-1H-pyrrole-2-carbonyl)-1,2,3,4-tetrahydro-quinolin-4-yl]-N-phenyl-acetamide]",< 10
17,"CCC(=O)N(c1ccccc1)[C@@H]1C[C@H](C)N(C(=O)c2ccnc(C)c2)c2ccccc21 (racemic) [Compound A-131, (±)-Cis-N-[2-methyl-1-(2-methyl-pyridine-4-carbonyl)-1,2,3,4-tetrahydro-quinolin-4-yl]-N-phenyl-propionamide]",< 10
18,"CC(C)CC(=O)N(c1ccccc1)[C@@H]1C[C@H](C)N(C(=O)c2ccc(F)cc2)c2ccccc21 (racemic) [Compound A-132, (±)-Cis-N-[1-(4-fluoro-benzoyl)-2-methyl-1,2,3,4-tetrahydro-quinolin-4-yl]-3-methyl-N-phenyl-butyramide]",< 10
19,"CCC(=O)N(c1ccccc1)[C@@H]1C[C@H](C)N(C(=O)c2ccc(-c3ccc(C(F)(F)F)cc3Cl)o2)c2ccccc21 (racemic) [Compound A-143, (±)-Cis-N-{1-[5-(2-chloro-4-trifluoromethyl-phenyl)-furan-2-carbonyl]-2-methyl-1,2,3,4-tetrahydro-quinolin-4-yl}-N-phenyl-propionamide]",< 10
20,"CCC(=O)N(c1ccccc1)[C@@H]1C[C@H](C)N(C(=O)c2ccc(-c3ccc([N+](=O)[O-])cc3)o2)c2ccccc21 (racemic) [Compound A-144, (±)-Cis-N-{2-methyl-1-[5-(4-nitro-phenyl)-furan-2-carbonyl]-1,2,3,4-tetrahydro-quinolin-4-yl}-N-phenyl-propionamide]",< 10
21,"C=CCC(=O)N(c1ccccc1)[C@@H]1C[C@H](C)N(C(=O)c2ccc(F)cc2)c2ccccc21 (racemic) [Compound A-147, (±)-Cis-but-3-enoic acid [1-(4-fluoro-benzoyl)-2-methyl-1,2,3,4-tetrahydro-quinolin-4-yl]-phenyl-amide]",< 10
22,"CC(=O)N(c1ccccc1)[C@@H]1C[C@H](C)N(C(=O)c2ccccc2C)c2ccccc21 (racemic) [Compound A-153, (±)-Cis-N-[2-methyl-1-(2-methyl-benzoyl)-1,2,3,4-tetrahydro-quinolin-4-yl]-N-phenyl-acetamide]",< 10
23,"CC(=O)N(c1ccccc1)[C@@H]1C[C@H](C)N(C(=O)c2c(C)noc2C)c2ccccc21 (racemic) [Compound A-154, (±)-Cis-N-[1-(3,5-dimethyl-isoxazole-4-carbonyl)-2-methyl-1,2,3,4-tetrahydro-quinolin-4-yl]-N-phenyl-acetamide]",< 60
24,"CC(=O)N(c1ccccc1)[C@@H]1C[C@H](C)N(C(=O)C2CCCCC2)c2ccccc21 (racemic) [Compound A-157, (±)-Cis-N-(1-cyclohexanecarbonyl-2-methyl-1,2,3,4-tetrahydro-quinolin-4-yl)-N-phenyl-acetamide]",< 10
25,"CC(=O)N(c1ccccc1)[C@@H]1C[C@H](C)N(C(=O)c2cc(C)nn2C)c2ccccc21 (racemic) [Compound A-159, (±)-Cis-N-[1-(2,5-dimethyl-2H-pyrazole-3-carbonyl)-2-methyl-1,2,3,4-tetrahydro-quinolin-4-yl]-N-phenyl-acetamide]",< 10
